Experimental data published in DBAASP.
Values after ≈ are worked out from the molar mass of the structure shown.

Columns and labels:
Assay in all cases: ≥ marks a high value that may be exact or a test limit, other limits are often not marked, values filed in µg/mL are converted to µM
[1] = test system: Legionella pneumophila Lens
[2] = test system: Staphylococcus epidermidis KCTC 1917
[3] = test system: Bacillus subtilis KCTC 3068
[4] = test system: Staphylococcus aureus KCCM 40510
[5] = test system: Enterococcus faecalis ATCC 51575
[6] = test system: Acinetobacter baumannii ATCC BAA-1605
[7] = test system: Staphylococcus aureus KCTC 1621
[8] = test system: Escherichia coli KCTC 1682
[9] = test system: Enterococcus faecalis KCCM 11814
[10] = test system: Acinetobacter baumannii KCCM 1053
[11] = test system: Pseudomonas aeruginosa KCTC 1637
[12] = test system: Pseudomonas aeruginosa CCARM 2180
[13] = test system: Salmonella typhimurium KCTC 1926
[14] = test system: Mycobacterium tuberculosis H37Rv
[15] = test system: Mycobacterium tuberculosis WXY
[16] = test system: Mycobacterium tuberculosis CAS3
[17] = test system: Escherichia coli ATCC 25922
Enterococcus faecalis VR = test system: Enterococcus faecalis VR
[18] = test system: Pseudomonas aeruginosa ATCC 27853
Pseudomonas aeruginosa = test system: Pseudomonas aeruginosa
[19] = test system: Staphylococcus aureus ATCC 29213
[20] = test system: Escherichia coli ATCC BAA-2523
[21] = test system: Staphylococcus aureus ATCC 43300
Enterococcus faecalis = test system: Enterococcus faecalis
[22] = test system: Escherichia coli CIP 54.8T
Acinetobacter baumannii = test system: Acinetobacter baumannii
Staphylococcus aureus = test system: Staphylococcus aureus
[23] = test system: Staphylococcus epidermidis
Escherichia coli ESBL = test system: Escherichia coli ESBL
Klebsiella pneumoniae = test system: Klebsiella pneumoniae
Enterococcus sp. = test system: Enterococcus sp.
[24] = test system: Staphylococcus aureus ATCC 25923
[25] = test system: Listeria monocytogenes EGD
[26] = test system: Bacillus subtilis VKM B-501
Escherichia coli C600 = test system: Escherichia coli C600
[27] = test system: Staphylococcus aureus 209P

Q: With CC[C@H](C)[C@H](NC(=O)[C@H](CC(C)C)NC(=O)[C@H](CCCCN)NC(=O)[C@H](CCCCN)NC(=O)[C@@H](NC(=O)[C@@H](NC(=O)[C@H](CCC(=O)O)NC(=O)[C@@H](NC(=O)[C@@H](NC(=O)[C@H](CCCCN)NC(=O)[C@H](C)NC(=O)[C@@H](NC(=O)[C@@H](NC(=O)[C@H](CC(=O)O)NC(=O)[C@H](C)NC(=O)[C@@H](N)CCSC)C(C)C)[C@@H](C)CC)[C@@H](C)CC)C(C)C)[C@@H](C)CC)C(C)C)C(=O)N[C@@H](CC(=O)O)C(=O)N[C@@H](CCC(N)=O)C(=O)N[C@@H](Cc1ccccc1)C(=O)N[C@H](C(=O)N[C@@H](CCC(N)=O)C(=O)N[C@@H](CCCCN)C(=O)O)[C@@H](C)O [MADVIAKIVEIVKKLIDQFTQK] as the compound, how does the MIC [1] read?
A: The MIC was 0.62 µM (≈ 1.57 µg/mL).

Q: With CC[C@H](C)[C@@H]1NC(=O)[C@H](CCCN=C(N)N)NC(=O)[C@@H](NC(=O)[C@H](CC(C)C)NC(=O)[C@@H](N)CCCN=C(N)N)CSSC[C@@H](C(=O)N[C@@H](CCCN=C(N)N)C(=O)O)NC(=O)[C@H](Cc2c[nH]c3ccccc23)NC(=O)[C@H](CCCN=C(N)N)NC(=O)[C@H]([C@@H](C)CC)NC(=O)[C@H](Cc2c[nH]c3ccccc23)NC(=O)[C@H](Cc2c[nH]c3ccccc23)NC1=O [RLCRIWWIRWCR] as the compound, how does the MIC [2] read?
A: Its MIC is 8 µM (≈ 14 µg/mL).

Q: What about the MIC [3] of the same compound?
A: Its MIC is at least 32 µM.

Q: What about the MIC [4] of the same compound?
A: The MIC was 22.6 µM (≈ 39.5 µg/mL).

Q: What about the MIC [5] of the same compound?
A: Its MIC is 11.3 µM (≈ 19.7 µg/mL).

Q: And the MIC [6]?
A: Its MIC is at least 64 µM.

Q: And the MIC [7]?
A: The MIC was 16 µM (≈ 27.9 µg/mL).

Q: And the MIC [8]?
A: Its MIC is 2.83 µM (≈ 4.94 µg/mL).

Q: And the MIC [9]?
A: Its MIC is at least 32 µM.

Q: And the MIC [10]?
A: The MIC was 22.6 µM (≈ 39.5 µg/mL).

Q: What about the MIC [11] of the same compound?
A: The MIC was 4 µM (≈ 6.98 µg/mL).

Q: What about the MIC [12] of the same compound?
A: The MIC was at least 64 µM.

Q: What about the MIC [13] of the same compound?
A: The MIC was 8 µM (≈ 14 µg/mL).

Q: What does the source list for CC(C)C[C@H](NC(=O)[C@H](CC(C)C)NC(=O)[C@H](CCCCN)NC(=O)[C@H](CCCCN)NC(=O)[C@@H](NC(=O)[C@H](C)N)C(C)C)C(=O)N[C@@H](C)C(=O)N[C@@H](C)C(=O)N[C@@H](C)C(=O)N[C@@H](CO)C(=O)N[C@@H](C)C(=O)N[C@@H](C)C(=O)N[C@@H](C)C(=O)N[C@@H](CCCCN)C(=O)N[C@@H](CCCCN)C(=O)O [AVKKLLAAASAAAKK]?
A: MIC [14]: ≥ 139 µM; MIC [15]: ≥ 139 µM; MIC [16]: ≥ 139 µM

Q: Which results are given for CC(C)C[C@H](NC(=O)[C@@H](N)CCC(N)=O)C(=O)NCC(=O)N[C@@H](CCCCN)C(=O)N[C@@H](CCCCN)C(=O)N[C@@H](CCCCN)C(=O)N[C@@H](Cc1cnc[nH]1)C(=O)N[C@@H](CCCN=C(N)N)C(=O)N[C@@H](CCCN=C(N)N)C(=O)N[C@@H](CCCN=C(N)N)C(=O)N1CCC[C@H]1C(=O)N[C@@H](CO)C(=O)N[C@@H](CCCCN)C(=O)N[C@@H](CCCCN)C(=O)N[C@@H](CCCCN)C(=O)N[C@@H](CCCN=C(N)N)C(=O)N[C@@H](Cc1cnc[nH]1)C(=O)N[C@@H](Cc1c[nH]c2ccccc12)C(=O)O [QLGKKKHRRRPSKKKRHW]?
A: MIC [17]: > 128 µM; MIC (Enterococcus faecalis VR): ≥ 128 µM; MIC [18]: > 128 µM; MIC (Pseudomonas aeruginosa): > 128 µM; MIC [19]: 128 µM (≈ 301 µg/mL); MIC [20]: ≥ 128 µM; MIC [21]: 128 µM (≈ 301 µg/mL); MIC (Enterococcus faecalis): ≥ 128 µM

Q: Which MIC [22] does the source give for CC[C@H](C)[C@H](NC(=O)[C@H](Cc1cnc[nH]1)NC(=O)[C@H](Cc1cnc[nH]1)NC(=O)[C@H](Cc1ccccc1)NC(=O)[C@@H](NC(=O)[C@H](CCCCN)NC(=O)[C@@H](NC(=O)[C@@H](N)Cc1ccccc1)[C@@H](C)CC)[C@@H](C)CC)C(=O)N[C@@H](Cc1ccccc1)C(=O)N[C@@H](CCCCN)C(=O)NCC(=O)N[C@@H](CC(N)=O)C(=O)N1CCC[C@H]1C(=O)N[C@@H](CCCCN)C(=O)N[C@@H](Cc1ccccc1)C(=O)N[C@@H](CO)C(=O)N[C@H](C(=O)N[C@H](C(=O)N[C@@H](CCCCN)C(=O)O)[C@@H](C)CC)[C@@H](C)CC [FIKIFHHIFKGNPKFSIIK] here?
A: Its MIC is at least 150 µM.

Q: With CC(C)C[C@H](NC(=O)CNC(=O)[C@H](CCCCN)NC(=O)[C@@H](NC(=O)[C@H](CCCCN)NC(=O)[C@H](CCCCN)NC(=O)[C@@H](NC(=O)[C@@H](NC(=O)[C@H](CCCCN)NC(=O)[C@@H](NC(=O)[C@H](CCCCN)NC(=O)CNC(=O)[C@H](CCCN=C(N)N)NC(=O)[C@H](Cc1ccc(O)cc1)NC(=O)[C@H](CC(C)C)NC(=O)[C@H](CCCCN)NC(=O)CNC(=O)[C@H](Cc1ccccc1)NC(=O)[C@@H](N)Cc1c[nH]c2ccccc12)[C@@H](C)O)C(C)C)C(C)C)C(C)C)C(=O)N[C@@H](CC(C)C)C(=O)N[C@@H](CCCCN)C(=O)NCC(=O)O [WFGKLYRGKTKVVKKVKGLLKG] as the compound, how does the MIC (Acinetobacter baumannii) read?
A: The MIC was 2.47 µM (≈ 6.25 µg/mL).

Q: What about the MIC (Staphylococcus aureus) of the same compound?
A: The MIC was 9.87 µM (≈ 25 µg/mL).

Q: What about the MIC [23] of the same compound?
A: Its MIC is 9.87 µM (≈ 25 µg/mL).

Q: What about the MIC (Pseudomonas aeruginosa) of the same compound?
A: Its MIC is 4.93 µM (≈ 12.5 µg/mL).

Q: And the MIC (Escherichia coli ESBL)?
A: Its MIC is 2.47 µM (≈ 6.25 µg/mL).

Q: What about the MIC (Klebsiella pneumoniae) of the same compound?
A: The MIC was 4.93 µM (≈ 12.5 µg/mL).

Q: And the MIC (Enterococcus sp.)?
A: The MIC was 9.87 µM (≈ 25 µg/mL).

Q: Which MIC [17] does the source give for CC[C@H](C)[C@H](NC(=O)[C@H](C)NC(=O)CNC(=O)[C@H](CCCCN)NC(=O)[C@@H](NC(=O)[C@H](CC(C)C)NC(=O)[C@H](C)NC(=O)[C@H](CC(C)C)NC(=O)[C@@H](NC(=O)[C@@H](NC(=O)[C@H](Cc1ccc(O)cc1)NC(=O)[C@@H](NC(=O)[C@H](Cc1ccccc1)NC(=O)[C@H](CCCCN)NC(=O)[C@H](CCCCN)NC(=O)[C@@H](N)CCCCN)[C@@H](C)CC)[C@@H](C)CC)C(C)C)[C@@H](C)CC)C(=O)N[C@H](C(=O)N[C@@H](CCCCN)C(=O)N[C@@H](CCCCN)C(=O)NCC(N)=O)[C@@H](C)CC [KKKFIYIVLALIKGAIIKKG] here?
A: Its MIC is 32 µM (≈ 71.8 µg/mL).

Q: And the MIC [24]?
A: Its MIC is 64 µM (≈ 144 µg/mL).

Q: What about the MIC [18] of the same compound?
A: The MIC was 64 µM (≈ 144 µg/mL).

Q: And the MIC [25]?
A: The MIC was at least 32 µM.

Q: CSCC[C@H](NC(=O)[C@H](CCCCN)NC(=O)CN)C(=O)N[C@@H](CCCCN)C(=O)N[C@@H](CCC(=O)O)C(=O)N[C@@H](Cc1ccc(O)cc1)C(=O)N[C@@H](Cc1ccccc1)C(=O)N[C@@H](CCCCN)C(=O)N[C@@H](CCCCN)C(=O)N[C@@H](Cc1ccccc1)C(=O)NCC(=O)N[C@@H](C)C(=O)N[C@@H](CO)C(=O)N[C@@H](Cc1ccccc1)C(=O)N[C@@H](CCCCN)C(=O)N[C@@H](CCCN=C(N)N)C(=O)N[C@@H](CCCN=C(N)N)C(=O)N[C@@H](Cc1ccccc1)C(=O)N[C@@H](C)C(=O)N[C@@H](CC(N)=O)C(=O)N[C@@H](CC(C)C)C(=O)N[C@@H](CCCCN)C(=O)N[C@@H](CCCCN)C(=O)N[C@@H](CCCN=C(N)N)C(=O)N[C@@H](CC(C)C)C(N)=O [GKMKEYFKKFGASFKRRFANLKKRL] was tested. Which MIC [26] did it give?
A: Its MIC is 0.7 µM (≈ 2.16 µg/mL).

Q: And the MIC (Escherichia coli C600)?
A: Its MIC is 1.5 µM (≈ 4.62 µg/mL).

Q: What about the MIC [27] of the same compound?
A: Its MIC is 3 µM (≈ 9.24 µg/mL).
